For six compounds, IC50, Papp and EC50 results are on record in patent publication US10202390B2, “Heteroaryl substituted aminopyridine compounds” (BRISTOL-MYERS SQUIBB COMPANY, priority 2015, dated 2019).

The target in data set [1] is IRAK4 (Homo sapiens (Human), UniProt Q9NWZ3). The data set can be described thus: IRAK4 Inhibition Assay. Type of data set: biochemical. The conditions noted are these: ATP 500 μM; IRAK4 0.6 nM; 60 min room temperature. As for the experimental part: The assays were performed in U-bottom 384-well plates. The final assay volume was 30 μL prepared from 15 μL additions of enzyme and substrates (fluoresceinated peptide and ATP) and test compounds in assay buffer (20 mM HEPES pH 7.2, 10 mM MgCl2, 0.015% Brij 35 and 4 mM DTT). The reaction was initiated by the combination of IRAK4 with substrates and test compounds. The reaction mixture was incubated at room temperature for 60 min. and terminated by adding 45 μL of 35 mM EDTA to each sample. The reaction mixture was analyzed on the Caliper LABCHIP® 3000 (Caliper, Hopkinton, Mass.) by electrophoretic separation of the fluorescent substrate and phosphorylated product. Inhibition data were calculated by comparison to no enzyme control reactions for 100% inhibition and vehicle-only reactions for 0% inhibition. The final concentrations of reagents in the assays are ATP, 500 μM; FL-IPTSPITTTYFFFKKK peptide 1.5 μM; IRAK4, 0.6 nM; and DMSO, 1.6%.

A short description of data set [2]: Caco-2 Permeability Assay. The format is in vitro ADME. The conditions noted are these: human, test compound 3 μM, 2 hours at 37° C., direction not given. As for the experimental part:
Caco-2 Permeability Assay Protocol
Thirteen to 27 days prior to assay, Caco-2 cells were seeded onto collagen-coated polycarbonate filter membranes in 24-well transwell plates at a density of 1.45×10^5 cells/cm^2, approximately 4.8×10^4 cells per well. The cells were grown in a culture medium consisting of DMEM supplemented with 10% fetal bovine serum, 10 mM HEPES, 1% nonessential amino acids, 2 mM L-glutamine, 100 U/mL penicillin-G, and 100 μg/mL streptomycin. The culture medium was replaced every 3 days and the cells were maintained at 37° C. in a 95% relative humidity and 5% CO2 atmosphere. The cells were evaluated for tight junction formation just prior to assay. The test compound was solubilized to 10 mM in 100% DMSO and diluted to 3 μM in assay buffer. Permeability studies were initiated by adding 200 μL assay buffer plus/minus compound to the apical transwell compartment and 600 μL assay buffer plus/minus compound to the basolateral compartment of the 24-well transwell low-binding cluster plate. For apical-to-basolateral (A to B) permeability (absorptive direction), buffer containing compound was placed in the apical compartment (donorwells), while buffer alone was placed in the corresponding basolateral compartments (receiverwells). For basolateral-to-apical (B to A) permeability (secretive direction), buffer containing compound was placed in the basolateral compartment (donor wells), while buffer alone was placed in the corresponding apical compartments (receiver wells). Transwells were then incubated for 2 hours at 37° C. in a 95% relative humidity and 5% CO2 atmosphere with gentle agitation. Following incubation, 100 μL was removed from each apical and basolateral compartment and transferred to 96-well low binding plates that had been previously loaded with 100 μL/well of acetonitrile containing 250 nM propranolol, 250 nM diclofenac, and 500 nM tolbutamide as internal standards. The samples were subsequently analyzed by LC-MS/MS to determine concentrations of compound.
On the technique in general: Caco-2 cells form a polarised layer with tight junctions and transporters.

The test system of data set [3] is Human whole blood. The data set can be described thus: IRAK4 Whole Blood Assay (TLR2 agonist lipoteichoic acid induced IL-6). The format is cell-based. The conditions noted are these: 10 μg/mL lipoteichoic acid (TLR2 agonist), 5 hours, IL-6 levels. As for the experimental part: Human whole blood containing the anti-coagulant ACD-A was plated in 384-well plate (25 μL/well) and incubated with compounds for 60 minutes at 37° C. in a 5% CO2 incubator. The blood was stimulated with a TLR2 agonist, 10 μg/mL final concentration of lipoteichoic acid (Invivogen, San Diego, Calif.) in 25 μL RPMI (Gibco) for 5 hours in a 5% CO2 incubator. At the end of the incubation, plates were centrifuged at 2300 rpm for 5 minutes. Supernatants were harvested and analyzed for IL-6 levels by Flow Cytometry beads assay (BD Biosciences, San Jose, Calif.).

IRAK4, sequence (Q9NWZ3 whole entry): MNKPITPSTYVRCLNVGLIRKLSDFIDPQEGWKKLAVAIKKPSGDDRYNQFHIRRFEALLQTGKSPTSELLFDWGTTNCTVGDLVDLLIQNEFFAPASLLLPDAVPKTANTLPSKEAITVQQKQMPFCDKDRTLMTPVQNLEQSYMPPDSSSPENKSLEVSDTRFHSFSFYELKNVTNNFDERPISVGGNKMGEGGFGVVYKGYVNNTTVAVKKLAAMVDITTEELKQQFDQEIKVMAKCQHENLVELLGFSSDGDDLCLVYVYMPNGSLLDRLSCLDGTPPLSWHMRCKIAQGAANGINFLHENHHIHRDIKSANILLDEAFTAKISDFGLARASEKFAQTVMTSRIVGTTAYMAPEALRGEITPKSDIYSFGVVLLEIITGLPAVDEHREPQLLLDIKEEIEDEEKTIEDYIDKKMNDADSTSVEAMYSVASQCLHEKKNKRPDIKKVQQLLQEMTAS

Broadly, the IC50 is the concentration needed to halve the response being measured. As a reminder, the Papp is the rate of passage across a membrane or cell layer, normalised by area and donor concentration. In the case of `CCCc1cn(-c2cnc(-c3cnn4cc(C#N)cnc34)cc2NC(C)C)nn1` [Example 12, 3-(4-(isopropylamino)-5-(4-propyl-1H-1,2,3-triazol-1-yl)pyridin-2-yl)pyrazolo[1,5-a]pyrimidine-6-carbonitrile], the IC50 in data set [1] was 9 nM. The Papp at 2 h, 3 μM in data set [2] is 34.7 ×10⁻⁶ cm/s.
The term EC50 denotes the concentration needed to bring the measured effect to its halfway point. A low value points to greater potency. For `CCCc1cn(-c2cnc(-c3cnc4cc(C#N)cnn34)cc2NC(C)C)nn1` [Example 15, 3-(4-(isopropylamino)-5-(4-propyl-1H-1,2,3-triazol-1-yl)pyridin-2-yl)imidazo[1,2-b]pyridazine-7-carbonitrile], the IC50 in data set [1] came out at 6 nM. In data set [2], this compound returned a Papp at 2 h, 3 μM of 22.5 ×10⁻⁶ cm/s. Besides, the EC50 in data set [3] turned out to be 1780 nM.
The matching figures for `CCCn1cc(-c2cnc(-c3cnc4cc(C#N)cnn34)cc2NC2CC2)nn1` [Example 18, 3-(4-(cyclopropylamino)-5-(1-propyl-1H-1,2,3-triazol-4-yl)pyridin-2-yl)imidazo[1,2-b]pyridazine-7-carbonitrile]: 2 nM, 22.5 ×10⁻⁶ cm/s and 180 nM.
Take `CC(C)Nc1cc(-c2cnc3cc(C#N)cnn23)ncc1-n1cc(CCC(C)(C)O)nn1` [Example 22, 3-(5-(4-(3-hydroxy-3-methylbutyl)-1H-1,2,3-triazol-1-yl)-4-(isopropylamino)pyridin-2-yl)imidazo[1,2-b]pyridazine-7-carbonitrile]: the IC50 in data set [1] was 4 nM. In data set [2], this compound yielded a Papp at 2 h, 3 μM of 29.5 ×10⁻⁶ cm/s. In addition, a half-maximal response in data set [3] (EC50) required 780 nM.
Taken in the same sequence, the figures for `CC(C)(O)CCc1cn(-c2cnc(-c3cnn4cc(C#N)cnc34)cc2N[C@H]2CC[C@H](F)C2)nn1` [Example 25, 3-(4-(((1S,3 S)-3-fluorocyclopentyl)amino)-5-(4-(3-hydroxy-3-methylbutyl)-1H-1,2,3-triazol-1-yl)pyridin-2-yl)pyrazolo[1,5-a]pyrimidine-6-carbonitrile] were 5 nM, 13.4 ×10⁻⁶ cm/s and 250 nM.
Taken in the same sequence, the figures for `CC(C)Nc1cc(-c2cnc3cc(C#N)cnn23)ncc1-c1cnn(CCC(C)(C)O)c1` [Example 27, 3-(5-(1-(3-hydroxy-3-methylbutyl)-1H-pyrazol-4-yl)-4-(isopropylamino)pyridin-2-yl) imidazo[1,2-b]pyridazine-7-carbonitrile] were 3 nM, 13.6 ×10⁻⁶ cm/s and 620 nM.
